Broadly, the IC50 is the point on the concentration scale where inhibition reaches its midpoint.

Each structure is given as a SMILES string.

For test [1], the target named is Prostaglandin G/H synthase 2 (Homo sapiens) (UniProt P35354). The test can be described thus: Inhibition of recombinant human COX2 assessed as reduction in PGF2alpha incubated for 2 mins using arachidonic acid as substrate by ELISA.
Test [2] addresses Prostaglandin G/H synthase 1 (Ovis aries) (UniProt P05979). Nature of the test: Inhibition of ovine COX1 assessed as reduction in PGF2alpha incubated for 2 mins using arachidonic acid as substrate by ELISA. A general note: In an ELISA, binding on a coated surface is turned into a signal by an enzyme label.

Chain of Prostaglandin G/H synthase 2 (Homo sapiens) (P35354 whole entry, looked up): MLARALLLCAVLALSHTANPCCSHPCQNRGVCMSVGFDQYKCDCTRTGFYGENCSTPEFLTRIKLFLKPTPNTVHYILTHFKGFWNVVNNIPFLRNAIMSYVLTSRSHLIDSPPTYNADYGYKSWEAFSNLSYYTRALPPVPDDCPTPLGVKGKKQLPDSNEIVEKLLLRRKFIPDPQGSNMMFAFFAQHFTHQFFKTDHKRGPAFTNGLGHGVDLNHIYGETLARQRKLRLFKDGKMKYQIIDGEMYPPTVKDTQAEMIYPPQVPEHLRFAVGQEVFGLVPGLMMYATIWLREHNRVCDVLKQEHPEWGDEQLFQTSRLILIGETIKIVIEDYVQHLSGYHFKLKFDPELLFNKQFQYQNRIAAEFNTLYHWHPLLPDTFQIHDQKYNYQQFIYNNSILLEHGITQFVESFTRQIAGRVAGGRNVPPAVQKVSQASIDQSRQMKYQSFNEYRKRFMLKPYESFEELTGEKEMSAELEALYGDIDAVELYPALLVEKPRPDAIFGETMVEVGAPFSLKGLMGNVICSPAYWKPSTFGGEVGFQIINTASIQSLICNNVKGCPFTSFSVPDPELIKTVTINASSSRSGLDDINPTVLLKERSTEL

For the compound `CC(=O)N(C1=CC(=O)CCC1)c1ccc(Cl)cc1`, the figures for the IC50 in test [1] and in test [2] were 0.367 µM and 39.9 µM, respectively.
The like results for `O=C1C=C(Nc2ccc(Cl)cc2)CCC1` were, in that order, 0.513 µM and 38 µM.
For `CC(C)(C)OC(=O)N(C1=CC(=O)CCC1)c1ccc(Cl)cc1` the same measures were 0.915 µM and 17.8 µM.

The values above are taken from BindingDB's records for doi:10.1016/j.ejmech.2019.111601 (National Institute of Pharmaceutical Education and Research …, 2019).
